{"source": "patent US20140088192A1", "about": "“SUBCUTANEOUSLY INFUSIBLE LEVODOPA PRODRUG COMPOSITIONS AND METHODS OF INFUSION” (SynAgile Corporation, priority 2010, published 2014)", "key": {"volunteer": {"tested_on": "volunteer", "experiment": "Intramuscular / subcutaneous infusion of LDEE.HCl in human volunteers, local tolerability", "format": "in vivo", "method": "The flow rate was 0.6 mL/h. […] The protrusion disappeared after 2 days.\nA healthy volunteer took one Lodosyn (carbidopa), 25 mg pill, at each of the morning, midday and evening of the day preceding the infusion, and in the morning, midday and evening of the day of the infusion. After adjusting the pH of a stored solution of pH 2.4 and 2.5 mL volume of 2.9 M LDEE.HCl by adding to it 0.16 mL of 1.5 M trisodium citrate solution to about pH 4.6±0.1, a 2.7 M LDEE.HCl solution was obtained. Using a Medtronic Minimed Paradigm 723, a Medtronic Minimed Silhouette, 43 inches, 17 mm cannula infusion set, a Medtronic Minimed Sil-Serter infusion set insertion system, the volunteer infused 0.67 mL of the 2.7 M LDEE.HCl solution into their abdomen over a period of 9 hours. The infusion site was 7-8 cm below the ribs. The initial 4 hr infusion was at a rate of 0.062 mL/hr (37.5 mg of LDEE/hr), followed by 0.082 mL/hr (50 mg of LDEE/hr) in the next 5 hours. The total infused volume contained 406 mg LDEE, the equivalent to 356 mg L-DOPA.\nA healthy volunteer took one Lodosyn (carbidopa), 25 mg pill, at each of the evening preceding the infusion, and in the morning, midday and evening of the day of the infusion. After adjusting the pH to about pH 4.7±0.3 of a stored solution of pH 2.4 and 2.5 mL volume of 2.9 M LDEE.HCl by adding 0.16 mL of 1.5 M trisodium citrate solution, a 2.7 M LDEE.HCl solution was obtained. Using a Medtronic Minimed Paradigm 723, a Medtronic Minimed Silhouette, 43 inches, 17 mm cannula infusion set, and a Medtronic Minimed Sil-Serter infusion set insertion system, the a volunteer infused 0.67 mL of the 2.7 M LDEE.HCl solution into the frequently exercised and occasionally massaged outside of the upper arm over a period of 9 hours. The initial 4 hr infusion was at a rate of 0.062 mL/hr (37.5 mg of LDEE/hr), followed by 0.082 mL/hr (50 mg of LDEE/hr) in the next 5 hours. The total infused volume contained 400 mg LDEE, the equivalent to 351 mg L-DOPA.\nA healthy volunteer took one Lodosyn (carbidopa), 25 mg pill, at each of the evening of the day preceding the infusion, and in the morning, mid-day and evening of the day of the infusion. 1 mL of the 2.9 M LDEE.HCl stored solution of pH 2.4, 0.04 mL of a 1.5 M trisodium citrate solution and 2 mL sterile water were syringed into the reservoir of a Medtronic Minimed Paradigm 723 pump. This pump and a Medtronic Minimed Silhouette, 43 inches, 17 mm cannula infusion set inserted with a Medtronic Minimed Sil-Serter infusion set insertion system were used. The volunteer infused 1.85 mL, or 396 mg LDEE (equivalent to 347 mg L-DOPA) of the now 3× diluted 0.95 M LDEE solution into their upper arm over a period of 9 hours at two rates: First near 37.5 mg/hr (0.175 mL/hr) for 4 hours then near 50 mg/hr (0.233 mL/hr) for 5 hours. During the course of the infusion the volunteer periodically exercised their arm and gently massaged the infusion site.\nA healthy volunteer took one Lodosyn (carbidopa), 25 mg pill, at each of the evening of the day preceding the infusion, and in the morning, mid-day and evening of the day of the infusion. The reservoir of a Medtronic Minimed Paradigm 723 pump was primed (to assure that all of the 3 mL in the reservoir will be infused) then the reservoir was filled with 0.6 mL of the 2.9 M LDEE.HCl stored solution of pH 2.4, 0.024 mL of a 1.5 M trisodium citrate solution and 2.4 mL sterile water by syringing. The pump, a Medtronic Minimed Silhouette, 43 inches, 17 mm cannula infusion set, and a Medtronic Minimed Sil-Serter infusion set insertion system were used. The volunteer infused 3 mL, or 400 mg LDEE (equivalent to 350 mg L-DOPA) of the now 5× diluted (i.e. 0.58 M) LDEE solution into their upper arm over a period of 9 hours at a flow rate of 0.33 mL/hr. […] The infusion ended at 7:30 pm. […]"}, "[1]": {"experiment": "Estimated / projected shelf life and operational life (time to LD saturation)", "conditions": "for storage time without LD precipitation: 2.5±0.5 M aqueous; for time remaining precipitate free: after 18 months refrigerated storage"}, "[2]": {"conditions": "intramuscular, right upper arm, about 0.45 mL of 2.3 M pH 4.5 over 45 min"}, "[3]": {"conditions": "s.c. abdomen, 0.67 mL of 2.7 M over 9 hours"}, "[4]": {"conditions": "s.c. exercised upper arm, 0.67 mL of 2.7 M over 9 hours"}, "[5]": {"conditions": "s.c. exercised upper arm, 1.85 mL of 0.95 M over 9 hours"}, "[6]": {"conditions": "s.c. upper arm, 3 mL of 0.58 M over 9 hours"}, "[7]": {"conditions": "s.c. upper arm, 10.7 mL of 0.48 M over 18 hours"}}, "data": [{"smiles": "CCOC(=O)[C@@H](N)Cc1ccc(O)c(O)c1.Cl", "note": "[LDEE.HCl, LDEE Hydrochloride]", "values": [{"measurement": "time to disappearance of the protrusion", "setting": "volunteer; intramuscular, about 0.45 mL of 2.3 M pH 4.5", "value": 2, "unit": "days"}, {"measurement": "local reaction after infusion", "setting": "volunteer; [2]", "value": "small nodule which spread after 4 hours into an about 1 mm high, 2-3 cm radius protrusion"}, {"measurement": "pain, inflammation, color change, sensitivity at the site", "setting": "volunteer; [2]", "value": "no pain, inflammation, color change or sensitivity"}, {"measurement": "pain or irritation", "setting": "volunteer; s.c. abdomen, 0.24 mL of 2.3 M pH 4.5 over about 90 min in 8 boluses", "value": "felt no pain or irritation during or after the infusion"}, {"measurement": "course of induration after 24 hours", "setting": "volunteer; [3]", "value": "became diffuse and partly, but not completely, subsided"}, {"measurement": "other adverse events", "setting": "volunteer; [3]", "value": "no other adverse events"}, {"measurement": "swelling / induration at infusion site", "setting": "volunteer; [3]", "value": "Mild swelling was observed and an induration of approximately 2.5 cm diameter developed"}, {"measurement": "pain or redness", "setting": "volunteer; s.c. abdomen, 0.67 mL of 2.7 M pH about 4.6 over 9 hours, oral carbidopa", "value": "virtually no pain or redness"}, {"measurement": "course of swelling", "setting": "volunteer; [4]", "value": "disappeared after a week"}, {"measurement": "other adverse events", "setting": "volunteer; [4]", "value": "no other adverse events of any kind"}, {"measurement": "swelling at infusion site at end of infusion", "setting": "volunteer; [4]", "value": "about 7 cm long elongated mildly swollen region"}, {"measurement": "pain or redness", "setting": "volunteer; s.c. exercised upper arm, 0.67 mL of 2.7 M pH about 4.7 over 9 hours, oral carbidopa", "value": "virtually no pain or redness"}, {"measurement": "course of swelling", "setting": "volunteer; [5]", "value": "disappeared gradually in about three days"}, {"measurement": "other adverse events", "setting": "volunteer; [5]", "value": "no other adverse events"}, {"measurement": "swelling at infusion site at end of infusion", "setting": "volunteer; [5]", "value": "very slightly swollen region of about 4 cm diameter"}, {"measurement": "pain or redness", "setting": "volunteer; s.c. exercised upper arm, 1.85 mL of 0.95 M over 9 hours, oral carbidopa", "value": "no pain or redness"}, {"measurement": "adverse events", "setting": "volunteer; [6]", "value": "no adverse events"}, {"measurement": "local findings at end of infusion", "setting": "volunteer; [6]", "value": "very slight reddening of a 2×4 cm skin area and a very slightly harder than normal 2 cm diameter zone under the skin"}, {"measurement": "site on the following morning", "setting": "volunteer; [6]", "value": "the skin and infused tissue appeared normal"}, {"measurement": "pain during infusion", "setting": "volunteer; s.c. upper arm, 3 mL of 0.58 M over 9 hours, oral carbidopa", "value": "felt no pain during the infusion"}, {"measurement": "adverse events", "setting": "volunteer; [7]", "value": "no adverse events"}, {"measurement": "swelling", "setting": "volunteer; [7]", "value": "swelling most of which subsided within 8 hours"}, {"measurement": "time after which swelling was no longer visible", "setting": "volunteer; [7]", "value": 12, "unit": "h"}, {"measurement": "pain, reddening, inflammation at end of infusion", "setting": "volunteer; s.c. upper arm, 10.7 mL of 0.48 M pH 4.8-5.0 (5.1 millimoles) over 18 hours, oral carbidopa", "value": "no pain, reddening or inflammation"}, {"measurement": "projected storage (shelf) life", "setting": "[1]; 2.5 M solution at 4° C. (per Example 18)", "value": "greater than 4 years"}, {"measurement": "projected shelf life", "setting": "[1]; 2.5 M solution, pH 2.3, about 4° C.", "value": "about 4.7 years"}, {"measurement": "operational life (time to LD saturation)", "setting": "[1]; 2.5 M, pH 4.5 citrate, 29° C.-30° C.", "value": 4, "unit": "days"}, {"measurement": "operational life, projection", "setting": "[1]; 2.5 M, pH 4.5 citrate, 37° C. body temperature", "value": "about 2 days"}, {"measurement": "operational life (time to LD saturation)", "setting": "[1]; 2.5 M, pH 4.5 citrate, about 23° C.", "value": "about 9 days"}, {"measurement": "storage time without LD precipitation", "setting": "[1]; pH 2.5±0.5, about 5±3° C.", "value": "about 3 years"}, {"measurement": "storage time without LD precipitation", "setting": "[1]; pH about 1.5 to about 3.5, about 5±3° C.", "value": "more than 1 year"}, {"measurement": "% of the LDEE.HCl hydrolyzed at which LD saturation is reached", "setting": "[1]; 2.7 M LDEE.HCl, LD saturation about 17 grams per liter", "value": "about 3.4%"}, {"measurement": "Estimated pH 2.3 storage life at 4° C.", "setting": "[1]; about 2.0 M LDEE.HCl solution", "value": 50, "unit": "months"}, {"measurement": "Estimated pH 2.3 storage life at 25° C.", "setting": "[1]; about 2.0 M LDEE.HCl solution", "value": 2, "unit": "months"}, {"measurement": "Estimated pH 4.5 operational life at 30° C.", "setting": "[1]; about 2.0 M LDEE.HCl solution", "value": 4, "unit": "days"}, {"measurement": "Estimated pH 4.5 operational life at 37° C.", "setting": "[1]; about 2.0 M LDEE.HCl solution", "value": 2, "unit": "days"}, {"measurement": "operational life", "setting": "[1]; about 2.7 M, about pH 4.49, 40° C.", "value": "> 48", "unit": "h"}, {"measurement": "residual operational life", "setting": "[1]; after 18 months at 4° C., then operational ambient temperature", "value": "more than 3 days"}, {"measurement": "time remaining precipitate free", "setting": "[1]; pH raised to about 4.2±0.3, 30° C.", "value": "more than 3 days"}, {"measurement": "time remaining precipitate free", "setting": "[1]; pH raised to about 4.2±0.3, 37° C.", "value": "more than 2 days"}, {"measurement": "residual operational life", "setting": "[1]; after one year at 4° C., then 23° C. ambient", "value": "greater than 4 days"}, {"measurement": "projected time free of LD precipitate", "setting": "[1]; refrigerated pH 4.0 solution, 2.4 M", "value": "about 50 weeks"}]}]}
